Key:
Measles morbillivirus = assay: Antiviral activity against Measles virus infected in human MRC5 cells; format: functional, organism-based
Human papillomavirus = assay: Antiviral activity against Human papillomavirus infected in HEK293 cells; format: functional, organism-based
[1] = Cytotoxicity against African green monkey Vero E6 cells; format: cell-based; details: chlorocebus sabaeus
[2] = Cytotoxicity against HFF cells; format: cell-based; details: human
[3] = Selectivity index, ratio of CC50 for African green monkey Vero 76 cells to IC50 for Rift Valley fever virus; format: functional
[4] = Selectivity index, ratio of CC50 for HFF cells to IC50 for human cytomegalovirus; format: functional
[5] = Selectivity index, ratio of CC50 for African green monkey Vero cells to IC50 for Pichinde virus; format: functional
[6] = Selectivity index, ratio of CC50 for HFF cells to IC50 for Vaccinia virus; format: functional
Pichinde virus = assay: Antiviral activity against Pichinde virus infected in African green monkey Vero 76 cells; format: functional, organism-based
[7] = Selectivity index, ratio of CC50 for African green monkey Vero E6 cells to IC50 for Monkeypox virus; format: functional
[8] = Cytotoxicity against HEK293 cells; format: cell-based; details: human
[9] = Selectivity index, ratio of CC50 for African green monkey Vero cells to IC50 for Tacaribe virus; format: functional
[10] = Cytotoxicity against African green monkey Vero 76 cells; format: cell-based; details: chlorocebus sabaeus
Monkeypox virus = assay: Antiviral activity against Monkeypox virus infected in African green monkey Vero E6 cells; format: functional, organism-based
[11] = Selectivity index, ratio of CC50 for human MRC5 cells to IC50 for Measles virus; format: functional
[12] = Inhibition of rabbit erythrocyte SAHase using S-adenosyl-L-homocysteine as substrate assessed as L-homocysteine formation incubated for 5 mins prior to substrate addition measured after 1 hr; parameters: species or system Oryctolagus cuniculus
[13] = Cytotoxicity against human MRC5 cells; format: cell-based
Human betaherpesvirus 5 = assay: Antiviral activity against human cytomegalovirus infected in HFF cells; format: functional, organism-based; details: Human betaherpesvirus 5, HFF
Rift Valley fever virus = assay: Antiviral activity against Rift Valley fever virus infected in African green monkey Vero 76 cells; format: functional, organism-based
Tacaribe virus = assay: Antiviral activity against Tacaribe virus infected in African green monkey Vero 76 cells; format: functional, organism-based; details: Mammarenavirus tacaribeense
[14] = Cytotoxicity against African green monkey Vero cells; format: cell-based; details: chlorocebus sabaeus
Vaccinia virus = assay: Antiviral activity against Vaccinia virus infected in HFF cells; format: functional, organism-based; details: Orthopoxvirus vaccinia
Hepatitis B virus = assay: Antiviral activity against HBV; format: functional, organism-based
[15] = Selectivity index, ratio of CC50 for HEK293 cells to IC50 for Human papillomavirus; format: functional

Q: For `Nc1ncc(F)c2c1ncn2[C@@H]1C[C@H](CCO)[C@@H](O)[C@H]1O`, which IC50 (Measles morbillivirus) is on record?
A: < 0.32 µM

Q: And the IC50 (Human papillomavirus)?
A: > 100 µM

Q: What about the CC50 [1] of the same compound?
A: > 100 µM

Q: And the CC50 [2]?
A: > 264 µM

Q: What about the “Ratio CC50/IC50” value [3] of the same compound?
A: >10

Q: And the “Ratio CC50/IC50” value [4]?
A: 177

Q: What about the “Ratio CC50/IC50” value [5] of the same compound?
A: 5.7

Q: What about the “Ratio CC50/IC50” value [6] of the same compound?
A: >5

Q: And the IC50 (Pichinde virus)?
A: 30 µM

Q: What about the “Ratio CC50/IC50” value [7] of the same compound?
A: >313

Q: What about the CC50 [8] of the same compound?
A: > 100 µM

Q: What about the “Ratio CC50/IC50” value [9] of the same compound?
A: 20

Q: And the CC50 [10]?
A: > 300 µM

Q: And the IC50 (Monkeypox virus)?
A: < 0.32 µM

Q: What about the “Ratio CC50/IC50” value [11] of the same compound?
A: >313

Q: What about the IC50 [12] of the same compound?
A: 0.009 µM

Q: And the CC50 [13]?
A: > 100 µM

Q: And the IC50 (Human betaherpesvirus 5)?
A: 1.49 µM

Q: What about the IC50 (Rift Valley fever virus) of the same compound?
A: 34 µM

Q: What about the IC50 (Tacaribe virus) of the same compound?
A: 6.4 µM

Q: And the CC50 [14]?
A: 128 µM

Q: What about the IC50 (Vaccinia virus) of the same compound?
A: 55.2 µM

Q: Which IC50 [12] does the source give for `Nc1nccc2c1ncn2[C@@H]1C=C(CO)[C@@H](O)[C@H]1O` here?
A: 0.0093 µM

Q: For `Nc1ncc(F)c2c1ncn2[C@@H]1O[C@H](CO)[C@@H](O)[C@H]1O`, which EC50 (Hepatitis B virus) is on record?
A: 9.2 µM

Q: What does the source list for `Nc1ncc(F)c2c1ncn2[C@@H]1C[C@H](CO)[C@@H](O)[C@H]1O`?
A: IC50 (Measles morbillivirus): < 0.32 µM; IC50 (Human papillomavirus): > 100 µM; CC50 [1]: > 100 µM; CC50 [2]: > 178 µM; Ratio CC50/IC50 [3]: >6.3; Ratio CC50/IC50 [4]: <3; Ratio CC50/IC50 [5]: 7; Ratio CC50/IC50 [6]: >6; IC50 (Pichinde virus): 24 µM; Ratio CC50/IC50 [7]: >313; CC50 [8]: > 100 µM; Ratio CC50/IC50 [9]: 11; CC50 [10]: > 300 µM; IC50 (Monkeypox virus): < 0.32 µM; Ratio CC50/IC50 [11]: >313; IC50 [12]: 0.029 µM; CC50 [13]: > 100 µM; IC50 (Human betaherpesvirus 5): > 60 µM; IC50 (Rift Valley fever virus): 56 µM; IC50 (Tacaribe virus): 14 µM; CC50 [14]: 159 µM; IC50 (Vaccinia virus): 48 µM

Q: With `Nc1ncc(F)c2c1ncn2[C@@H]1C[C@H](O)[C@@H](O)[C@H]1O` as the compound, how does the IC50 (Measles morbillivirus) read?
A: < 0.32 µM

Q: And the IC50 (Human papillomavirus)?
A: 23.9 µM

Q: And the CC50 [1]?
A: > 100 µM

Q: What about the CC50 [2] of the same compound?
A: > 300 µM

Q: And the “Ratio CC50/IC50” value [6]?
A: >2

Q: What about the IC50 (Pichinde virus) of the same compound?
A: > 300 µM

Q: And the “Ratio CC50/IC50” value [7]?
A: >313

Q: What about the CC50 [8] of the same compound?
A: > 100 µM

Q: What about the CC50 [10] of the same compound?
A: > 300 µM

Q: What about the IC50 (Monkeypox virus) of the same compound?
A: < 0.32 µM

Q: And the “Ratio CC50/IC50” value [15]?
A: >4

Q: What about the “Ratio CC50/IC50” value [11] of the same compound?
A: >313

Q: And the IC50 [12]?
A: 0.0058 µM

Q: What about the CC50 [13] of the same compound?
A: > 100 µM

Q: What about the IC50 (Human betaherpesvirus 5) of the same compound?
A: > 300 µM

Q: And the IC50 (Rift Valley fever virus)?
A: > 300 µM

Q: What about the IC50 (Tacaribe virus) of the same compound?
A: > 300 µM

Q: And the CC50 [14]?
A: > 300 µM

Q: What about the IC50 (Vaccinia virus) of the same compound?
A: 142 µM
